# Source: patent US6303591A, “21-hydroxy-6,19-oxidoprogesterone (21OH-6OP) and its use as medicament for treating excess of glucocorticoids” (Applied Research Systems ARS Holding NV, priority 1997, dated 2001)
# Key:
# [1] = molecular target: T1, uterus PR (progesterone receptor) (Rattus norvegicus, UniProt Q63449); assay: (^3 H)-P4 binding to uterus cytosols (PR); settings: uterus cytosol, 12 h at 0° C., 1 μM cortisol
# T1 sequence (Q63449 1-923): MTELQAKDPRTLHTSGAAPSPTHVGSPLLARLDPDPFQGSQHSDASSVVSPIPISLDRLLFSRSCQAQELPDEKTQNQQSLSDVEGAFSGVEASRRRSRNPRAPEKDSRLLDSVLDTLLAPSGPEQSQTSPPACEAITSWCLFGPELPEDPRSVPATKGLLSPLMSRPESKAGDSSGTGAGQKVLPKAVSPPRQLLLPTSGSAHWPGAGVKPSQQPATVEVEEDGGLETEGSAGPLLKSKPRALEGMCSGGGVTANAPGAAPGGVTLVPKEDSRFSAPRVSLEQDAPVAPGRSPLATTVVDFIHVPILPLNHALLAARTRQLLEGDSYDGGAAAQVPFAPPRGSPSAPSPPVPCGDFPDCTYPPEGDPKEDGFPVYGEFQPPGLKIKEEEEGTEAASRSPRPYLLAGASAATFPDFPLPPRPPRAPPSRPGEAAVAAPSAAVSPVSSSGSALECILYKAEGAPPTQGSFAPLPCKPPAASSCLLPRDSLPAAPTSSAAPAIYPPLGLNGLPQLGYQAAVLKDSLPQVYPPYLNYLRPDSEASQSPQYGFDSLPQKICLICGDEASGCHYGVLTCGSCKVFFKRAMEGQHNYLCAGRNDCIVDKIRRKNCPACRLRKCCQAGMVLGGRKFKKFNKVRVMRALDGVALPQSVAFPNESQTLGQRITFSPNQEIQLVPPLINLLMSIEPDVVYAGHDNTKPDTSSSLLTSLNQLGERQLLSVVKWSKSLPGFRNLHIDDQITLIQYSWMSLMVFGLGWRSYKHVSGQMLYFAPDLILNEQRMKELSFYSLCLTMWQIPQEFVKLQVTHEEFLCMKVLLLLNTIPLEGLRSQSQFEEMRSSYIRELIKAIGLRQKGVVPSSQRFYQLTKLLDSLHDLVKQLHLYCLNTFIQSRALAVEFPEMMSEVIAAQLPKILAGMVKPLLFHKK
# Experimental: Binding Assay: Adrenalectomized male Sprague-Dawley rats were bled to death by heart puncture. Cold 0.9% NaCI was injected profusely through the aorta until organs were completely blanched. Thymuses were used as a source of GR and kidneys as a source of MR. Homogenization and incubation conditions were performed as previously described, (14) and (15), respectively. Briefly, homogenates performed in cold TEGM buffer at pH 7.4 (0.1 M Tris-HCl, 10 mM EDTA, 10 mM α-mercaptoethanol, 20 mM Na2 MoO4, 25% glycerol, 0.1 mM PMSF, 2.0 TIU/ml aprotinin and 1 mg% Leupeptin) were centrifuged at 37,000 rev. for 30 min at 0° C. Supernatants from this centrifugation are referred to as "cytosol". […] (^3 H)-P4 binding to uterus PR was assayed on immature female rats according to Jordan et al (16).
# Relative binding affinity (RBA) for partially purified CBG was determined by steroid competition for (^3 H)-B binding as described previously (14).
# MR = settings: background; cited from earlier work
# GR = settings: background; cited from earlier work
smiles,measurement,setting,value
"CC(=O)[C@H]1CC[C@H]2[C@@H]3CCC4=CC(=O)CC[C@]4(C)[C@H]3CC[C@]12C [P4, progesterone]",displacement of (^3 H)-P4 from uterus receptors / cross-reaction with PR,[1],able to displace the tracer efficiently
same,cross-reaction with MR,MR,exhibits cross-reaction with both MR and GR
same,cross-reaction with GR,GR,exhibits cross-reaction with both MR and GR
